Entries after “also recorded” stand apart in the source; their conditions may differ.
Columns and labels:
Assay type in all cases: cell-based
GFP = test: Western blot of GFP expressed from pEF1-GFP in HeLa cells; conditions: 48 h
Description: Figure 5 Triptolide specifically reduces steady-state level of Tat protein. (A) HeLa cells were transfected with pEF1-FLAG-Tat in the presence of increasing concentrations of triptolide. Cells were harvested 48 h post-transfection, and protein expression levels were determined by Western blotting. (B) HeLa cells were transfected either with pEF1-GFP (left) or pEF1-Tat-GFP (right) in the presence of increasing concentrations of triptolide. Cells were harvested 48 h post-transfection, and protein expression levels were determined by Western blotting.
(§1) Cells were washed with phosphate buffered saline (PBS) and lysed with radio immunoprecipitation assay lysis buffer supplemented with complete mini protease inhibitor cocktail (Roche) at 4°C for 1 h. Proteins from cell lysates were separated by SDS-PAGE and transferred to polyvinylidene difluoride membranes. After overnight incubation with primary antibodies at 4°C, each blot was probed with horseradish peroxidase-conjugated secondary antibody. Immunoreactive signals were detected with an enhanced chemiluminescence substrate (Thermo Scientific) using an AlphaEaseH FC Imaging System (Alpha Innotech Corporation).

[1] = tested on: TNF-α-induced HIV-1 LTR activation; test: HIV-1 LTR-luciferase reporter assay, TNF-α-induced, Jurkat cells; conditions: TNF-α 10 ng/mL, tested concentrations up to 5 nM
Description: (§2) Jurkat cells were seeded in 24-well plates at a density of 2 × 10^5 cells per well. For TNF-α induction, cells were co-transfected with pLTR-Luc and pRL-TK in the presence or absence of the test compounds. Then, the cells were treated with 10 ng/mL TNF-α 36 h post-transfection. After induction for an additional 12 h, luciferase activity was analyzed. For Tat-induced LTR activation, Jurkat cells were co-transfected with pLTR-Luc (or pLTR-Luc-ΔkB), pEF1-Tat and pRL-TK, and cultured in the presence of various concentrations of test compounds for an additional 48 h before the determination of luciferase activity. Luciferase levels were expressed relative to levels in cells without induction.

HIV-1 NL4-3 = test: Time-of-addition experiment in TZM-bl cells; conditions: triptolide at 5 nM, luciferase at 48 h
Description: TZM-bl cells seeded in 96-well plates (2 × 10^4 /well) were infected with HIV-1 NL4-3 (MOI = 1). The virus inoculum was removed after 1 h of infection. Test compounds were added at different time points after infection (0 h, 2 h, 4 h, 6 h, 8 h, and 10 h). Dextran sulfate was added at 10 μg/mL, zidovudine at 1 μM and triptolide at 5 nM. At 48 h post-infection, the virus replication level was determined by analyzing luciferase activity in the cells as described above.

HIV-1 mRNA = test: Reverse-transcription PCR of viral mRNA (Gag region) in infected Jurkat cells; conditions: HIV-1 NL4-3 MOI 0.5, 12 h post-infection, 118-D-24 50 μM, flavopiridol 20 nM, triptolide 5 nM
Description: The effects of the test compounds on HIV-1 proviral DNA and mRNA synthesis were analyzed by PCR. Jurkat cells were grown in 24-well plates and infected with the HIV-1 NL4-3 strain at an MOI of 0.5, and then test compounds were added at the desired concentrations. After incubation for 12 h, genomic DNA and mRNA from the infected cells were isolated using a Genomic DNA Mini Preparation Kit (Beyotime, China) and TRIzol reagent (Invitrogen Life Technologies), respectively. Nested PCR was used for the amplification of integrated proviral DNA, as previously described. To determine viral mRNA expression levels, 1 μg of RNA was treated with RQ1 RNase-Free DNase (Promega) and reverse transcribed using M-MLV Reverse Transcriptase (Promega) and random primers (Promega). An aliquot of cDNA was used as template for amplification of the HIV-1 Gag region as described elsewhere. […]
All of the PCR products were visualized on a UV transilluminator in 2% agarose gels stained with ethidium bromide. In preliminary experiments, the exponential range of the PCR amplification curve was determined for all of the PCR products by varying the amount of input DNA and the number of PCR cycles. Based on these experiments, appropriate conditions were chosen to perform semi-quantitative PCRs.

[2] = tested on: basal HIV-1 LTR transcription; test: Basal LTR transcription activity in TZM-bl and Jurkat cells; conditions: tested concentrations (data not shown)
Description: The effect of the test compounds on HIV-1 LTR promoter activity was evaluated using the luciferase reporter systems in both TZM-bl and Jurkat cells. TZM-bl cells seeded in 96-well plates (2 × 10^4 cells/well) were treated with either 10 ng/mL TNF-α (Sigma-Aldrich) or co-transfected with pEF1-Tat and pRL-TK (for transfection efficiency normalization) using Lipofectamine 2000 (Invitrogen). The cells were then cultured in the presence of various concentrations of the test compounds. After 24 h (TNF-α stimulation) or 48 h (Tat transfection) of incubation, luciferase activity was determined from cell lysates using the StedyGlo reagent (for TNF-α treated cells) or a dual luciferase assay system (Promega, for transfected cells) as recommended by the manufacturer.
as §2, with “Luciferase levels were expressed relative to levels in cells without induction.” left out

HIV-1-Luc = test: microbe, parasite or virus in culture
Description: In the antiviral assay with the HIV-1 reporter virus, Jurkat cells were seeded at a density of 2 × 10^4 cells per well in 96-well tissue culture plates and infected with HIV-1-Luc at an MOI of 0.5 in the presence or absence of the test compounds. At 48 h post-infection, luciferase activity in the cells was determined and EC50 values were calculated as described above.

cyclin T1 = test: Western blot of endogenous protein in HeLa cells; conditions: in the presence of triptolide, Western blotting
Description: (§3) (A) HeLa cells were transfected with pEF1-FLAG-Tat in the presence of increasing concentrations of triptolide. Cells were harvested 48 h post-transfection, and protein expression levels were determined by Western blotting. (B) HeLa cells were transfected either with pEF1-GFP (left) or pEF1-Tat-GFP (right) in the presence of increasing concentrations of triptolide. Cells were harvested 48 h post-transfection, and protein expression levels were determined by Western blotting.
as §1

CDK9 = test: Western blot of endogenous protein in HeLa cells; conditions: in the presence of triptolide, Western blotting
Description: as §3, §1

SMILES: CC(C)[C@]12O[C@H]1[C@@H]1O[C@]13[C@]1(O[C@H]1C[C@H]1C4=C(CC[C@@]13C)C(=O)OC4)[C@@H]2O [triptolide]
- expression level of GFP (GFP): not reduced
- effect on TNF-α induced gene expression [1]: no effect on TNF-α induced gene expression; also recorded: not active
- time post-infection to which addition could be postponed without losing activity (HIV-1 NL4-3): up to 10 h
- effect on viral mRNA synthesis (HIV-1 mRNA): repress viral mRNA synthesis
- effect on basal LTR transcription activity [2]: did not affect basal LTR transcription activity
- EC50 (HIV-1-Luc; Human immunodeficiency virus 1, Jurkat, 48 h): 0.45 nM
- selectivity ratio at 48 h (HIV-1-Luc; human, HIV-1-Luc, Jurkat, read-out: SI (selective index, CC50/EC50)): 30.9
- expression level of endogenous cyclin T1 (cyclin T1): remained unchanged
- expression level of endogenous CDK9 (CDK9): remained unchanged

Source: paper PMC4205289, “Triptolide inhibits human immunodeficiency virus type 1 replication by promoting proteasomal degradation of Tat protein” (Retrovirology, 2014)
